This is an account of results in patent US11384366B2, “Lentiviral vector capable of directly reflecting type I interferon response, preparation method thereof, and applications thereof” (Fantasia Biopharma (Zhejiang) Co. Ltd., priority 2016, dated 2022).

Assay [1] deals with IRF3-BiLC. The assay can be described thus: Effect of CHX on IRF3-BiLC in THP-1 (IRF3-BiLC) cells. The following applies: CHX 100 ng/mL for 10 h, with or without polydA:dT stimulation; normalized to untreated groups; FIG. 5. It counts as cell-based, human. The procedure: (§1) THP-1-Dual and THP-1 (IRF3-BiLC) cells were plated at a concentration of 1000,000 cells per mL in a 24-well plate. 4 groups were arranged for THP-1-Dual and THP-1 cells respectively, resulting in a total of 8 groups. After 12 hours, for THP-1-Dual cells, two groups of cells were transfected with Lipo2000 and stimulated with […] of polydA:dT, and the other two groups were not treated. The same treatment was performed for THP-1 (IRF3-BiLC). 4 hours after transfection, for the 2 groups of THP-1-Dual cells that were transfected and stimulated with polydA:dT, CHX with a final concentration of 100 ng/mL was added into one group. For the 2 groups of THP-1-Dual cells that were not treated, CHX with a final concentration of 100 ng/mL was added into one group. The other two groups were not treated. The same treatment was performed for THP-1 (IRF3-BiLC).
(§2) After 10 h of CHX treatment, for THP-1-Dual cells, 40 μL of supernatant was taken respectively to detect the luciferase activity. For THP-1 (IRF3-BiLC), 80 μL of Renilla luciferase lysate (purchased from Promega, E2820) was used to lyse on ice for 10 min. […] 20 μL of Renilla luciferase substrate (purchased from Promega, E2820) was added into each well, and the luciferase activity was detected by a microplate reader (purchased from Bio-Tek, Synergy H1).
(§3) The detected values of luciferase were normalized with regard to the untreated groups.

Assay [2] deals with ISRE-Luc. The assay can be described thus: Effect of CHX on ISRE-Luc in THP-1-Dual cells. It counts as cell-based. The following applies: CHX 100 ng/mL for 10 h, with or without polydA:dT stimulation; normalized to untreated groups; FIG. 6. The procedure: as §1, §2, §3
Assay [3] concerns IRF3 dimers. As to the kind of experiment: IRF3 dimer luciferase signal in THP-1 (IRF3-BiLC) under different stimulations. It counts as cell-based, human. As to conditions: FIG. 2a.
Assay [4] deals with IRF5 dimers. As to the kind of experiment: IRF5 dimer luciferase signal in THP-1 (IRF5-BiLC) under different stimulations. It counts as cell-based, human. The following applies: FIG. 2b.
In assay [5] the test system is IRF7 dimers. The assay can be described thus: IRF7 dimer luciferase signal in THP-1 (IRF7-BiLC) under different stimulations. As to conditions: FIG. 2c. It counts as cell-based, human.

Turning to `C[C@@H]1C[C@@H]([C@H](O)CC2CC(=O)NC(=O)C2)C(=O)[C@@H](C)C1` [CHX], the “effect of CHX on IRF3-BiLC luciferase activity” value in assay [1] is listed as “capable of reflecting the intracellular type I interferon response reaction”. The “effect of CHX on ISRE-Luc luciferase activity” value in assay [2] is listed as “affected significantly”.
In the case of “IL-1B: stimulus used on the THP-1 BiLC reporter cell lines”, in assay [3], the “signals of the IRF3 dimers (luciferase activity)” value is given as “cannot cause the formation of the signals”. For the same compound, in assay [4], the “signals of the IRF5 dimers (luciferase activity)” value is “cannot cause the formation of the signals”. In addition, the “signals of the IRF7 dimers (luciferase activity)” value in assay [5] is recorded as “cannot cause the formation of the signals”.
As to TNFa, the “signals of the IRF3 dimers (luciferase activity)” value in assay [3] is recorded as “cannot cause the formation of the signals”. The “signals of the IRF5 dimers (luciferase activity)” value in assay [4] was “cannot cause the formation of the signals”. The “signals of the IRF7 dimers (luciferase activity)” value in assay [5] is “cannot cause the formation of the signals”.
